Results as given in patent publication US8334000B2, “Anti-angiogenic extracts from pomegranate” (priority 2003, dated 2012).
Where two headings read alike, the source gives them in different places.

Columns and labels:
[1] = system: human placental vein discs; assay: Human placental vein angiogenesis model (HPVAM): initiation and angiogenic index; format: cell-based; conditions: for inhibition at 0.01 % strength: 0.01% w/v
Excerpt: The Human Placental Vein Angiogenesis Model: Discarded human placentas were obtained anonymously with prior approval of an Institutional Review Board. The placental veins were dissected free from the placenta and adventitial tissue. The trimmed vein segment was opened longitudinally to produce a flat film of venous tissue of full thickness. Vein discs (2 mm diameter) were created with a sterile skin punch (Miltex Instrument Company, Inc.; Lake Success, N.Y.). The discs were placed into wells of a standard 96-well plate (Corning Inc., Corning, N.Y.). The vein disc harvest was completed within three hours of delivery to optimize endothelial cell viability. Vein discs from a single placenta were distributed equally among all treatment groups to ensure randomization. Each well was preloaded with a human thrombin solution (0.05 IU in 2.0 μl), and allowed to evaporate to dryness before use. All chemicals were purchased from Sigma Chemical Company (St. Louis, Mo.) unless otherwise indicated.
Following the placement of the 2 mm vein disc in the bottom of each thrombin-containing well, the disc was covered with 100 μl of a clot-forming medium, comprising 3 mg/ml fibrinogen and 0.5% Σ-amino caproic acid dissolved in Human Placental Vein Angiogenesis Media (HPVAM). HPVAM is made of Medium 199 (Vitrogen Corporation, Carlsbad, Calif.), an antibiotic/antimycotic solution (100 U/ml penicillin, 100 U/ml streptomycin sulfate, and 0.25 μg/ml amphotericin(3; Vitrogen Corporation), and endothelial growth medium (25%) (Vitrogen Corporation). The mixture was allowed to clot by incubating in 5% CO2, 95% air at 37° C. in a humidified incubator. After the medium-containing placental discs had clotted, the vein-containing clot was supplemented with 100 μl HPVAM containing 20% fetal bovine serum (Vitrogen Corporation). The total well volume was 200 μl.
Evaluation of Angiogenesis: Visual evaluation of all wells was performed at 20× or 40× magnification with a standardized reference grid by an unbiased observer using an inverted microscope. Every other day, discs were graded using two criteria: the initiation of sprouting vessels (initiation) and the degree of sprouting (angiogenic index). Initiation of an angiogenic response was defined as the development of three or more vessel sprouts around the periphery of the vein disc. Initiation occurred in 50-95% of the wells, usually 4 to 6 days after establishment of the clots. Initiation was expressed as the percent of the total wells plated that indicated an angiogenic response.
The angiogenic index (AI) was defined using a subjective visual rating system. Each disc was visually rated for the development of vessel sprouting in each of four quadrants. Each of the four quadrants for each disc was rated on a 0-4 scale, depending on the number of sprouts (density) and the length of sprouts. Scores for all four quadrants were summed to express the AI, a numerical rating that could range from 0 to 16. A score of zero indicated no vessel growth in any of the four quadrants, while a score of 16 indicated long, dense angiogenic vessel growth in all four quadrants. For most experiments, the AI was expressed as a mean plus/minus a standard error of the mean.
To separate the process of initiation from that of proliferation, the AI was analyzed both with zero AI data points and without zero AI data points. […] This lack of initiation could have been due either to the effect of the experimental compound, to the insensitivity of the vein disc to stimulation in the culture conditions, or to the vein disc not being viable. In previous experiments, we have shown that only a small percent, about 2 to 3%, of vein discs are not viable (data not shown). Thus, a graph of AI with zero AI data points indicates the complete angiogenic response of initiation and growth under the experimental conditions. However, a graph of AI without the zero AI data points indicates only growth of the vessels after initiation. […]

[2] = 5% gallic acid, oral, 13 wks; cited from earlier work
human fat tissue = assay: Human fat tissue angiogenesis assay; format: cell-based; conditions: 0.01 M and 0.001 M, data not shown
Method: To test the angiogenic activity of plant extracts in another tissue, the refined fraction PUG100 was tested for its anti-angiogenic activity in human fat tissue taken from patients having gastric bypass surgery (Vista Surgical Hospital, Baton Rouge, La.). The human fat tissue assay was conducted very similar to that described in Example 1 for human placental vein tissue. […] (FIG. 25a). Immediately after the addition of the refined fraction PUG100, angiogenic vessel growth started to diverge. The control wells continued their growth, but the PUG100 treated wells stopped further growth. […] (Data not shown).

[3] = highest concentration tested (2×10^−2M; octyl gallate 2×10^−3 M), FIG. 13a
[4] = Homo sapiens, 336 h, 14 days in culture, FIG. 12a, read-out: inhibition of angiogenic initiation compared to the control
[5] = Homo sapiens, FIG. 12b, read-out: inhibition of angiogenesis compared with the control (mean AI with the zero points)
[6] = Homo sapiens, FIG. 12b, read-out: inhibition of angiogenic growth compared with the control (mean AI without the zero points)

| SMILES | initiation of angiogenesis [1, 3] | inhibition at 0.01 % strength [1, 4] [%] | inhibition at 0.01 % strength [1, 5] [%] | inhibition at 0.01 % strength [1, 6] [%] | also measured |
| --- | --- | --- | --- | --- | --- |
| O=C(O)c1cc(O)c(O)c(O)c1 [gallic acid, 3,4,5-trihydroxy benzoic acid] | totally blocked | – | – | – | initiation of angiogenesis ([1]; 0.025%, added after six days, FIG. 5a): totally inhibited; initiation of angiogenesis ([1]; 10^−3 M, FIG. 6a): totally inhibited; mean AI with the zero points included (initiation and proliferation) ([1]; 10^−3 M, FIG. 6b): totally inhibited angiogenesis; Percent initiation ([1]; 10^−4 M, FIG. 6a): 56%; Percent initiation ([1]; 10^−5 M, FIG. 6a): 50%; concentrations at which the inhibitory effect stopped (mean AI with zero points) ([1]; FIG. 6b): ≤ 10^−6 M; concentrations that showed inhibition (mean AI without the zero points, proliferation only) ([1]; FIG. 6c): greater than 10^−4 M; inhibition at 25 µM ([1]; Homo sapiens, read-out: estimated inhibition (IC19) if gallic acid were the only active compound, 2.5×10^−5 M): 19%; Percent initiation ([1]; up to 10^−10 M, FIG. 6a): 33%; body weight gain [2]: suppress body weight gain; initiation of angiogenesis (human fat tissue): inhibited initiation of angiogenesis |
| O=C(OC[C@H]1O[C@@H](OC(=O)c2cc(O)c(O)c(OC(=O)c3cc(O)c(O)c(O)c3)c2)[C@H](OC(=O)c2cc(O)c(O)c(OC(=O)c3cc(O)c(O)c(O)c3)c2)[C@@H](OC(=O)c2cc(O)c(O)c(OC(=O)c3cc(O)c(O)c(O)c3)c2)[C@@H]1OC(=O)c1cc(O)c(O)c(OC(=O)c2cc(O)c(O)c(O)c2)c1)c1cc(O)c(O)c(OC(=O)c2cc(O)c(O)c(O)c2)c1 [tannic acid, Tannic acid] | – | – | – | – | initiation of angiogenesis ([1]; 0.1% in HPVAM, FIG. 8a): inhibited the initiation of angiogenesis even better than the positive heparin-steroid control |
| CCCCCCCCOC(=O)c1cc(O)c(O)c(O)c1 [octyl gallate] | totally blocked | 85 | 97 | 83 | lowest concentration indicating inhibition of angiogenesis [1]: 200 µM; initiation of angiogenesis ([1]; 2×10^−4 M, FIG. 13a): totally blocked; mean AI with the zero points included (initiation and proliferation) ([1]; 2×10^−4 M, FIG. 13b): effective |
| COC(=O)c1cc(O)c(O)c(O)c1 [methyl gallate] | – | 38 | 71 | 52 | – |
| CCCCOC(=O)c1cc(O)c(O)c(O)c1 [butyl gallate] | totally blocked | 85 | 96 | 74 | – |
| CCCOC(=O)c1cc(O)c(O)c(O)c1 [propyl gallate] | – | 46 | 61 | 28 | – |
